Measured values reported in the PolyMetriX glass transition set.

Point of comparison: `*CC(*)c1ccc(Cl)cc1C` (repeat unit), glass transition temperature 145.00 °C. Against it:
- *CC(*)(C)C(=O)OCCCCCCOc1ccc(OC(=O)c2ccc(-c3ccc(OC)cc3)cc2)cc1 (repeat unit) — lower, 57.00 °C
- *OC1CCC(OC(=O)c2ccc(C(*)=O)cc2)CC1 (repeat unit) — lower, 94.30 °C
- *CC(*)c1ccccc1C(=O)OC(C)C (repeat unit) — higher, 146.00 °C
- */C=C/C1CC(*)C(C#N)C1 (repeat unit) — lower, 140.00 °C
- *c1ccc(Oc2ccc3ccc(Oc4ccc(-n5c(=O)c6cc7c(=O)n(*)c(=O)c7cc6c5=O)cc4)cc3c2)cc1 (repeat unit) — higher, 320.80 °C
- */C=C(/*)C(CCC)[Si](C)(C)c1ccccc1 (repeat unit) — lower, 110.00 °C
- *c1ccc2c(c1)C(=O)N(c1cccc(C(=O)Nc3ccc(C(c4ccc(NC(=O)c5cccc(N6C(=O)c7ccc(C(*)(C(F)(F)F)C(F)(F)F)cc7C6=O)c5)cc4)(C(F)(F)F)C(F)(F)F)cc3)c1)C2=O (repeat unit) — higher, 273.50 °C
- *c1ccc(Oc2ccc(-c3nc4cc(-c5ccc6nc(-c7ccccc7)c(*)nc6c5)ccc4nc3-c3ccccc3)cc2)cc1 (repeat unit) — higher, 300.00 °C
- *CC(*)C(=O)NC(C)(C)CS(=O)(=O)O (repeat unit) — lower, 85.00 °C
- *CC(C)CCC(C)CNC(=O)c1cc(C(=O)N*)cc(C(C)(C)C)c1 (repeat unit) — higher, 149.00 °C
- *CC(=O)NCCCCCCNC(=O)COC(=O)CCCCCCCCC(=O)O* (repeat unit) — lower, 2.00 °C
- *CC1CC(COC(=O)c2ccc(C(=O)O*)cc2)CC(C(C)(C)C)C1 (repeat unit) — lower, 118.00 °C
- */C(C)=C(/*)[Si](C)(C)C (repeat unit) — lower, 75.00 °C
- *CC(*)(C)C(=O)OCCS(=O)(=O)c1ccc(/N=N/c2ccc(N(CC)CC)cc2)cc1 (repeat unit) — lower, 142.00 °C
- *CCCCCCCCCCOc1ccc(N(c2ccccc2)c2ccc(-c3ccc(N(c4ccccc4)c4ccc(O*)cc4)cc3)cc2)cc1 (repeat unit) — lower, 90.00 °C
- *Oc1ccc(OC(=O)/C=C/c2ccc(/C=C/C(*)=O)cc2)cc1 (repeat unit) — higher, 210.00 °C
- *CCCCCOC(=O)Nc1ccc(Cc2ccc(NC(=O)O*)cc2)cc1 (repeat unit) — lower, 95.00 °C
- *c1ccc(C(=O)c2ccc(-n3c(=O)c4cc5c(=O)n(*)c(=O)c5cc4c3=O)cc2)cc1 (repeat unit) — higher, 424.00 °C
- *c1ccc(Oc2ccc(Oc3ccc(N4C(=O)c5ccc(Oc6ccccc6Oc6ccc7c(c6)C(=O)N(*)C7=O)cc5C4=O)cc3C(F)(F)F)cc2)c(C(F)(F)F)c1 (repeat unit) — higher, 197.00 °C
- */C=C/C1CC(*)C2C(=O)N(CCCCCCCCC)C(=O)C12 (repeat unit) — lower, 52.00 °C
- *C(=O)c1ccc2c(c1)C(=O)N(c1ccc(Oc3ccc(C(=O)c4cccc(C(=O)c5ccc(Oc6ccc(N7C(=O)c8ccc(*)cc8C7=O)cc6)cc5)c4)cc3)cc1)C2=O (repeat unit) — higher, 222.00 °C
- *Oc1ccc(Oc2ccc(C(=O)c3ccc(*)cc3)cc2)cc1-c1ccc(Oc2ccccc2)cc1 (repeat unit) — higher, 146.00 °C
- *CC(COC(=O)CCCCCCCCCCN1C(=O)C2C3C=CC(C3)C2C1=O)O* (repeat unit) — lower, -31.00 °C
- *OC(C)C(=O)OCC(*)=O (repeat unit) — lower, 43.00 °C
- *CC(*)(C)C(=O)OCCCCCCn1c2ccccc2c2ccccc21 (repeat unit) — lower, 73.00 °C
- *Oc1cccc(Oc2ccc(NC(=O)c3cc(NC(=O)c4ccc(OC(C)=O)cc4)cc(C(=O)Nc4ccc(*)cc4)c3)cc2)c1 (repeat unit) — higher, 230.00 °C
- *C(=O)c1cc(C(=O)c2ccc3c(c2)C(=O)N(c2ccc(Oc4ccc(N5C(=O)c6ccc(*)cc6C5=O)cc4)cc2)C3=O)cc(C(C)(C)C)c1 (repeat unit) — higher, 252.50 °C
- *CC(*)C(=O)OCC(F)(F)C(F)(F)C(F)(F)C(F)(F)F (repeat unit) — lower, -37.00 °C
- *CCCCOC(=O)C1CCC(C(=O)O*)CC1 (repeat unit) — lower, -10.50 °C
- *c1cccc(OCCCCCCOc2cccc(N3C(=O)c4ccc(-c5cccc6c5C(=O)N(*)C6=O)cc4C3=O)c2)c1 (repeat unit) — higher, 157.00 °C
- *Oc1ccc(Oc2ccc(/C(=N\c3ccccc3)c3ccc(Oc4ccc(Oc5cccc(*)n5)cc4)cc3)cc2)cc1 (repeat unit) — lower, 135.00 °C
- *CCCCSS* (repeat unit) — lower, -55.00 °C
- *Oc1cc(CCCCCC)cc(OC(=O)c2cccc(C(*)=O)c2)c1 (repeat unit) — lower, 67.50 °C
- *CCOC(=O)Nc1ccc(C)c(NC(=O)OCCOc2cc([N+](=O)[O-])ccc2/N=N/c2cn(*)c3ccc(-c4ccc5c(c4)c4ccccc4n5CCCC)cc23)c1 (repeat unit) — higher, 160.00 °C
- *Oc1cccc(Oc2cccc(*)c2)c1C#N (repeat unit) — the same, 145.00 °C
- *OP(=O)(Oc1ccc(OC)cc1)Oc1c(C)cc(S(=O)(=O)c2cc(C)c(*)c(C)c2)cc1C (repeat unit) — higher, 147.00 °C
- *CCOCCOC(=O)CCCCCCCCCCCCCCCCC(=O)O* (repeat unit) — lower, -68.00 °C
- *CCCCCCNC(=O)CCC(C)(C)c1ccc(C(C)(C)CCC(=O)N*)cc1 (repeat unit) — lower, 93.2 °C
- *Nc1cc(NC(=O)Nc2ccc(CCc3ccccc3NC(*)=O)cc2)ccc1C (repeat unit) — higher, 227.00 °C
- *C(=O)c1ccc2c(c1)/C(=N\c1cccc(Oc3cccc(Oc4cccc(/N=C5/OC(=O)c6ccc(*)cc65)c4)c3)c1)OC2=O (repeat unit) — higher, 190.00 °C
- *Oc1ccc(Oc2ccc(Oc3cccc(C(=O)Oc4ccc(-c5ccc(OC(=O)c6cccc(*)c6)cc5)cc4)c3)cc2)cc1 (repeat unit) — lower, 119.00 °C
- *CC(*)(C(=O)OC)c1ccccc1 (repeat unit) — lower, 121.00 °C
- *c1ccc(Oc2ccc(C(=O)c3cccc(C(=O)c4ccc(Oc5ccc(N6C(=O)c7ccc(Oc8ccc9c(c8)C(=O)N(*)C9=O)cc7C6=O)cc5C(F)(F)F)cc4)n3)cc2)c(C(F)(F)F)c1 (repeat unit) — higher, 212.20 °C
- *C(=O)Nc1ccc(-c2sc(-c3ccc(NC(=O)c4ccc5c(c4)C(=O)N(c4ccc(Oc6ccc7ccc(Oc8ccc(N9C(=O)c%10ccc(*)cc%10C9=O)cc8)cc7c6)cc4)C5=O)cc3)c(-c3ccccc3)c2-c2ccccc2)cc1 (repeat unit) — higher, 311.00 °C
- *CCCCC(c1ccc(O)cc1)C(*)c1ccc(O)cc1C (repeat unit) — lower, 25.00 °C
- *C(=O)Nc1ccc(Oc2ccc(NC(=O)c3ccc4c(c3)C(=O)N(c3ccc(Oc5ccc(N6C(=O)c7ccc(*)cc7C6=O)cc5)cc3)C4=O)cc2)cc1 (repeat unit) — higher, 282.00 °C
- *c1ccc(Oc2ccc(-c3nc4cc(Oc5ccc(NC(=O)c6cc(C(=O)Nc7ccc(Oc8ccc9nc(-c%10ccccc%10)c(*)nc9c8)cc7)cc(N7C(=O)c8c(Cl)c(Cl)c(Cl)c(Cl)c8C7=O)c6)cc5)ccc4nc3-c3ccccc3)cc2)cc1 (repeat unit) — higher, 295.00 °C
- *c1ccc(-c2cc(-c3ccc(OCCCCCCCCCCCC)cc3)cc(-c3ccc(-c4ccc5c(c4)C(CCCCCC)(CCCCCC)c4cc(*)ccc4-5)cc3)c2-c2ccc(OCCCCCCCCCCCC)cc2)cc1 (repeat unit) — lower, 79.00 °C
- *c1ccc(-c2nc3cc(Oc4ccc(NC(=O)CN5C(=O)c6ccc(C(c7ccc8c(c7)C(=O)N(CC(=O)Nc7ccc(Oc9ccc%10nc(-c%11ccccc%11)c(*)nc%10c9)cc7)C8=O)(C(F)(F)F)C(F)(F)F)cc6C5=O)cc4)ccc3nc2-c2ccccc2)cc1 (repeat unit) — higher, 280.00 °C
- *Oc1cc2ccccc2cc1OC(=O)c1ccc(Oc2ccc(C(*)=O)cc2)cc1 (repeat unit) — higher, 148.00 °C
- *CC(CCCCCCOc1ccc(/N=N/c2ccc(C(F)(F)F)cc2)cc1)COC(=O)CCCCC(=O)O* (repeat unit) — lower, 44.00 °C
- *C1C(=O)N(c2ccccc2C)C(=O)C1* (repeat unit) — higher, 335.00 °C
- *CC(*)c1ccc(COCC(CC)CCCC)cc1 (repeat unit) — lower, -23.00 °C
- *c1ccc(Oc2ccc(C(=O)c3cccc(C(=O)c4ccc(Oc5ccc(-c6nc(-c7ccc(-c8nc(*)c(-c9ccccc9)[nH]8)cc7)[nH]c6-c6ccccc6)cc5)cc4)c3)cc2)cc1 (repeat unit) — higher, 270.00 °C
- *Oc1ccc(C(C#N)(c2ccccc2)c2ccc(OC(*)=O)cc2)cc1 (repeat unit) — lower, 138.00 °C
- *c1ccc(Oc2cccc(Oc3ccc(N4C(=O)c5ccc(Oc6cc7ccccc7cc6Oc6ccc7c(c6)C(=O)N(*)C7=O)cc5C4=O)cc3)c2)cc1 (repeat unit) — higher, 208.00 °C
- *C(=O)c1ccc2c(c1)C(=O)N(c1cccc(Nc3nc(Nc4cccc(N5C(=O)c6ccc(*)cc6C5=O)c4)nc(N(c4ccccc4)c4ccccc4)n3)c1)C2=O (repeat unit) — higher, 290.00 °C
- *Oc1ccc(NC(=O)c2ccc(C(=O)Nc3ccc(Oc4ccc(C(=O)c5ccc(*)cc5)cc4)cc3)cc2)cc1 (repeat unit) — higher, 160.00 °C
- *CC(*)OC(=O)C(F)(F)C(F)(F)C(F)(F)F (repeat unit) — lower, 27.00 °C
- *c1ccc(-c2nc3ccc(-c4ccc5nc(*)c(-c6ccccc6)nc5c4)cc3nc2-c2ccccc2)cc1 (repeat unit) — higher, 354.50 °C
- *CC(*)c1ccc(CCCCCCCCCCCCCCCCCC)cc1 (repeat unit) — lower, 32.00 °C
- *CCCCCCn1ccc(-c2cccc(-c3ccn(*)n3)c2)n1 (repeat unit) — lower, 70.00 °C
- *CC(*)c1ccc(COCC(F)(F)C(F)(F)C(F)(F)C(F)(F)F)cc1 (repeat unit) — lower, 23.00 °C
- *CC(*)C(=O)OCCn1c2ccccc2c2ccccc21 (repeat unit) — lower, 106.80 °C
